Measurements reported in patent publication US12304894B2, “Derivatives of adamantyl oxadiazoles and pharmaceutically acceptable solvates, hydrates and salts thereof, pharmaceutical composition comprising same, synthesis method, suitable for use as effective and selective inhibitors of the reductase activity of the enzyme 11-beta dehydrogenase type 1 …” (PONTIFICIA UNIVERSIDAD CATOLICA DE CHILE, priority 2019, dated 2025).

Experiments:
[1] = molecular target: T1, recombinant 11β-HSD1 enzyme (Homo sapiens (Human), UniProt P28845); experiment: 11β-HSD1 oxidase activity (HTRF Cortisol Kit); assay type: biochemical
Experimental: Determination of 11β-HSD1 Oxidase Activity
The Cortisol Kit (Cisbio) product was used for that purpose.
For the analysis, the compounds are reconstituted in DMSO in a stock of 10 mM concentration, from which serial dilutions were prepared for the efficiency curve.
The recombinant 11β-HSD1 enzyme dilutions were prepared in 20 mM Tris Buffer 5 mM EDTA pH 6.0 (Tris buffer).
Initially, the enzyme concentration to be used was determined. For this purpose, a plate for HRTF was prepared with Tris buffer with 100 nM cortisol and 200 μM NADP+, including in the wells of the plate for HTRF together with the enzyme in a 4:1 ratio, respectively, and incubated for 2 hours at 37° C. After this time, the reagents of the Cortisol kit, Cortisol d2 and Cortisol cryptate in sample ratio, Cortisol d2 and cortisol cryptate 2:1:1 were added, incubating this new reaction for 1 hour at room temperature. Subsequently, the fluorescence was determined at 665 and 620 nm.
An HRTF plate was again prepared, where the reaction buffer, the recombinant 11β-HSD1 enzyme and the compound were added in each well in a 3:1:1 ratio, respectively. The plate was incubated at 37° C. for 2 hours. After the incubation time, the reagents of the cortisol kit, cortisol d2 and cortisol cryptate, were added as indicated above. They were then incubated at room temperature for 1 hour to finally read the fluorescence at 665 and 620 nm.

[2] = system: Madin-Darby Canine Kidney (MDCK) cells transfected with human P-glycoprotein (hMDR1); settings: MDCK-MDR1
Experimental: Madin-Darby Canine Kidney (MDCK) cells were used in this assay, which are stably transfected with the gene encoding human P-glycoprotein (hMDR1). These cells were cultured in DMEM medium (Dulbecco's Modified Eagle's Medium) high in glucose and supplemented with 10% fetal bovine serum, 1% 5 mM pyruvate, 1% non-essential amino acids solution X5, 20,000 IU/mL of penicillin G and 20,000 IU/mL of streptomycin, a temperature of 37° C., 90% relative humidity and 5% CO2. These cells were seeded in sterile plates on the fourth day of growth or until reaching 90% confluence.
Ten days before carrying out the transport analysis, cells were seeded in Transwells® inserts (1.12 cm2) at a density of 60,000 cells/cm^2. The monolayers were supplemented every two days with fresh culture medium. […] In parallel, B-A experiments were performed (1.5 mL of donor solution in basolateral compartment and 0.5 mL buffer in apical). The monolayers were incubated while stirring (50 rpm) at a temperature of 37° C. for a period of 2 hours. Additionally, this assay was performed in the presence of the Pgp inhibitor elacridar (5 μM). After the stir time, the inserts were removed, the compartments were sampled and the cells were transferred to HPLC vials by diluting these samples with mobile phase chromatography. These samples were kept at −20° C. until their analysis time. […]

[3] = In vivo pharmacokinetics in mice, IV and oral; design: species or system male C57BL/6J mice
Experimental: The animals were classified according to weight and divided into the following groups (Table 7):
20% Kolliphor and 50% PBS at a concentration of 1 mg/mL. From this solution, a 0.4 mg/mL dilution was made for IV administration.
In intravenous (IV) administration, after each compound was administered to the mice, the mice were separated into groups of 3 and were euthanized at times 5, 10, 15, 30, 60, 120, 240, 260, 480 and 1440 minutes. For oral administration (V.O), the mice were separated into groups of 3 and were euthanized at times 15, 30, 60, 120, 240, 260, 480 and 1440 minutes. To obtain zero-time assays, mice were used to which no compound was administered.
Whole blood was obtained from each animal (in microtubes with EDTA); these samples were centrifuged at 9000 g at a temperature of 4° C. for a period of 5 minutes, obtaining the plasma which was stored at −80° C.
In addition, organs such as brain, liver, muscle, epididymal fat, heart and kidney were obtained from the animals, which were frozen in liquid nitrogen and stored at −80° C.
Plasma samples and brain, liver, epididymal fat, and muscle (tissue) samples were analyzed. 2× in volume of water (weight/volume) was added to the tissue samples while 4× in volume of water (weight/volume) was added to the muscle mixture, after which they were homogenized using a Bullet Blender equipment (Next Advance, USA).
All samples were analyzed as a single point by LC-MS/MS in accordance with the analytical methodology already standardized and presented in application example 3.
To begin, a calibration curve was run. For this purpose, the controls, the plasma and organ samples were prepared by adding 180 μL of cold acetonitrile to these, then vortexed for 15 seconds and centrifuged at 6100 g for 30 seconds at 4° C. The supernatant which was obtained from this procedure was diluted in 2 volumes of 0.2% formic acid in water and transferred to a vial that will allow it to be injected into LC-MS/MS.
The conditions for the LC-MS/MS analysis were: • HPLC: Eksigent UltraLC 100 • Autosampler: Eksigent UltraLC 100-XL at RT • Mobile phase: A-0.1% formic acid in water; B-0.1% formic acid in acetonitrile. • Column: YMC Triart 1.9 μm; 2.0×50 mm • Injection volume: 2 μL • Gradient: 5% B for 0.25 min→5-95% B for 0.75 min→95% B for 2 min→95-5% B for 0.25 min→5% B for 0.25 min • Flow: 0.6 mL/min • Mass Spectrometer: Applied Biosystems/SCIEX QTRAP 4500 • Interface: TurbolonSpray (ESI) at 600° C. • Software: Analyst.

[4] = molecular target: T1, recombinant 11β-HSD1 enzyme; experiment: 11β-HSD1 reductase activity (HTRF Cortisol Kit); assay type: biochemical; settings: 266 nM cortisone, 333 μM NADPH, read-out: 11b-HSD1 reductase (HTRF) IC50
Experimental: Determination of 11β-HSD1 Reductase Activity
First, stock solutions of the compounds were prepared in DMSO at a concentration of […], of which serial dilutions were made in order to determine the efficacy curve.
As for the recombinant 11β-HSD1 enzyme (Cayman Chemical, MI, USA; Item No. 10007815), it was prepared in Tris Buffer 20 mM EDTA 5 mM pH 6.0 (Tris buffer) at different dilutions.
Initially, the enzyme concentration to be used in the assays in order to evaluate the biological activity of the compounds was determined. The Cortisol Kit product (Cisbio, MA, USA; Cat no. 62CRTPEG) was used for that purpose.
The protocol consisted of preparing the reaction buffer, adding 266 nM cortisone and 333 μM NADPH in Tris buffer. Then, this reaction buffer is added to the wells of the HTRF (Homogeneous Time Resolved Fluorescence) reaction plate together with the enzyme in a 4:1 ratio respectively, and incubated for 2 hours at 37° C. In the case of the control wells, two wells with Tris buffer were added, without compounds.
After the incubation time, the reagents of the Cortisol kit were added, Cortisol d2 and Cortisol cryptate in sample ratio, Cortisol d2 and cortisol cryptate 2:1:1, in a quantity according to the size of the well as indicated by the supplier (for the negative control of the kit, the cortisol d2 is replaced by the kit's reconstitution buffer). This reaction is incubated for 1 hour at room temperature in order to later read the fluorescence at 665 and 620 nm.
Once the enzyme concentration to be used has been determined, the cortisol kit protocol is continued to determine the efficacy curve for the compounds. As previously done, a plate for HTRF was prepared adding to each well of the reaction buffer, the recombinant 11β-HSD1 enzyme and the compounds to be assayed in a 3:1:1 ratio, respectively. The plate was subsequently incubated at 37° C. for 2 hours.
After the incubation time, the reagents of the cortisol kit, cortisol d2 and cortisol cryptate, are added, and were incubated again for 1 hour at room temperature. Finally, the fluorescence of each well was determined at 665 and 620 nm.

T1 sequence (P28845 whole entry): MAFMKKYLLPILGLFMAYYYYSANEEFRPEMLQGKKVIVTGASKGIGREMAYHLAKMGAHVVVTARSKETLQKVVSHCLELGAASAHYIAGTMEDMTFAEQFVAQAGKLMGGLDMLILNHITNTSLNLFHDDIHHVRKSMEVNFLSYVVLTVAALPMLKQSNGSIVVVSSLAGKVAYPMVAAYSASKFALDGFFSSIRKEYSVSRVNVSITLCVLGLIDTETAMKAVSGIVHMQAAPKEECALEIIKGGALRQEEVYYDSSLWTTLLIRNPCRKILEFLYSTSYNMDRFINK

Substance: 1-(3-pyridyl)-2-(3-adamantyl-1,2,4-oxadiazol-5-yl)ethane [BD-44]
- 11b-HSD1 oxidase (activ rem %) 100 nM ([1]; remaining activity at 100 nM compound): 107.0%
- 11b-HSD1 oxidase (activ rem %) 100 uM ([1]; remaining activity at 100 uM compound): 94.3%
- Papp compared with high permeability marker minoxidil [2]: higher than those of the high permeability marker minoxidil
- AUCExtr ([3]; IV, 2 mg/Kg, plasma): 0.672%
- AUCInf ([3]; IV, 2 mg/Kg, plasma): 369 ng·h/mL
- AUCfinal ([3]; IV, 2 mg/Kg, plasma): 368 ng·h/mL
- CL ([3]; IV, 2 mg/Kg, plasma): 90.3 mL/min/kg
- Vz ([3]; IV, 2 mg/Kg, plasma): 7.95 L/kg
- t1/2 ([3]; IV, 2 mg/Kg, plasma): 1.02 h
- AUCExtr ([3]; PO, 10 mg/Kg, plasma): 1.39%
- AUCInf ([3]; PO, 10 mg/Kg, plasma): 148 ng·h/mL
- AUCfinal ([3]; PO, 10 mg/Kg, plasma): 146 ng·h/mL
- CL ([3]; PO, 10 mg/Kg, plasma): 1120 mL/min/kg
- F ([3]; PO, 10 mg/Kg, plasma): 8.00%
- Vz ([3]; PO, 10 mg/Kg, plasma): 102 L/kg
- t1/2 ([3]; PO, 10 mg/Kg, plasma): 1.05 h
- tmax ([3]; PO, 10 mg/Kg, plasma): 0.5 h
- mean time (of elimination) of the drug ([3]; administered intravenously, plasma): 1.02 h
- mean time (of elimination) of the drug ([3]; administered orally, plasma): 1.05 h
- time post administration up to which compound was detected ([3]; both intravenously and orally, plasma): up to 6 hours
- detection in tissues (brain, liver, fat, muscle) ([3]; oral and intravenous administration): not detected in the tissues assayed
- bioavailability / apparent availability ([3]; plasma): low apparent availability
- IC50 [4]: 3.9 nM
